Laboratory results as given in patent US20180055032A1, “ODORS FOR PSYLLID TRAPPING, REPELLING AND CONTROL” (The Regents of the University of California, priority 2011, published 2018).

Key:
[1] = system: ACP; details: small plot field trial, cited from earlier work
[2] = system: neuron 2A (rhinarial plate on flagellomere 2); experiment: single-sensillum electrophysiology, odor response of neuron 2A; assay type: cell-based, Diaphorina citri; details: Table 1; odor diluted to 1%, 50 μL in cartridge; note: key: 0, no response; +, >50 spikes/second; ++, >100 spikes/second; +++, >150 spikes/second
[3] = system: neuron 2B (rhinarial plate on flagellomere 2); experiment: single-sensillum electrophysiology, odor response of neuron 2B; assay type: cell-based, Diaphorina citri; details: Table 1; odor diluted to 1%, 50 μL in cartridge
[4] = system: neuron 2C (rhinarial plate on flagellomere 2); experiment: single-sensillum electrophysiology, odor response of neuron 2C; assay type: cell-based, Diaphorina citri; details: Table 1; odor diluted to 1%, 50 μL in cartridge
[5] = system: neuron 4A (rhinarial plate on flagellomere 4); experiment: single-sensillum electrophysiology, odor response of neuron 4A; assay type: cell-based, Diaphorina citri; details: Table 1; odor diluted to 1%, 50 μL in cartridge
[6] = system: neuron 4B (rhinarial plate on flagellomere 4); assay type: cell-based, Diaphorina citri; details: Table 1; odor diluted to 1%, 50 μL in cartridge
[7] = system: neuron 4C (rhinarial plate on flagellomere 4); experiment: single-sensillum electrophysiology, odor response of neuron 4C; assay type: cell-based, Diaphorina citri; details: Table 1; odor diluted to 1%, 50 μL in cartridge
[8] = system: neuron 6A (rhinarial plate on flagellomere 6); experiment: single-sensillum electrophysiology, odor response of neuron 6A; assay type: cell-based, Diaphorina citri; details: Table 1; odor diluted to 1%, 50 μL in cartridge
[9] = system: neuron 6B (rhinarial plate on flagellomere 6); experiment: single-sensillum electrophysiology, odor response of neuron 6B; assay type: cell-based, Diaphorina citri; details: Table 1; odor diluted to 1%, 50 μL in cartridge
[10] = system: neuron 6C (rhinarial plate on flagellomere 6); experiment: single-sensillum electrophysiology, odor response of neuron 6C; assay type: cell-based, Diaphorina citri; details: Table 1; odor diluted to 1%, 50 μL in cartridge
[11] = system: neuron 7A (rhinarial plate on flagellomere 7); experiment: single-sensillum electrophysiology, odor response of neuron 7A; assay type: cell-based, Diaphorina citri; details: Table 1; odor diluted to 1%, 50 μL in cartridge; note: key: 0, no response; +, >50 spikes/second; ++, >100 spikes/second; +++, >150 spikes/second
[12] = system: neuron 7B (rhinarial plate on flagellomere 7); assay type: cell-based, Diaphorina citri; details: Table 1; odor diluted to 1%, 50 μL in cartridge
[13] = system: neuron 7C (rhinarial plate on flagellomere 7); experiment: single-sensillum electrophysiology, odor response of neuron 7C; assay type: cell-based, Diaphorina citri; details: Table 1; odor diluted to 1%, 50 μL in cartridge
[14] = system: ACP; details: cited from earlier work

| Compound | reduction in ACP densities ([1]; low psyllid density area (average 3-4 ACP/10 trees)) | duration of reduction in ACP densities [1] | odor response (frequency of action potentials during stimulus minus baseline), 2A [2] | odor response (frequency of action potentials during stimulus minus baseline), 2B [3] | odor response (frequency of action potentials during stimulus minus baseline), 2C [4] | odor response (frequency of action potentials during stimulus minus baseline), 4A [5] | odor response (frequency of action potentials during stimulus minus baseline), 4B [6] | odor response (frequency of action potentials during stimulus minus baseline), 4C [7] | odor response (frequency of action potentials during stimulus minus baseline), 6A [8] | odor response (frequency of action potentials during stimulus minus baseline), 6B [9] | odor response (frequency of action potentials during stimulus minus baseline), 6C [10] | odor response (frequency of action potentials during stimulus minus baseline), 7A [11] | odor response (frequency of action potentials during stimulus minus baseline), 7B [12] | odor response (frequency of action potentials during stimulus minus baseline), 7C [13] | ACP behavior in lab behavior assays ([14]; at lower concentration) | ACP behavior in laboratory behavioral assays ([14]; high amounts, as released by citrus plants under physical stress) |
| --- | --- | --- | --- | --- | --- | --- | --- | --- | --- | --- | --- | --- | --- | --- | --- | --- |
| CSSC [DMDS, dimethyl disulfide] | 65% | up to three |  |  |  |  |  |  |  |  |  |  |  |  |  |  |
| COC(=O)c1ccccc1O [methyl salicylate] |  |  | 0 | 0 | 0 | 0 | + (+, >50 spikes/second) | 0 | 0 | + (+, >50 spikes/second) | 0 | 0 | + (+, >50 spikes/second) | 0 | attracted | repellency |
| CC1=CC=C(C(C)C)CC1 [α-terpinene] |  |  | 0 | 0 | 0 | 0 | ++ (++, >100 spikes/second) | 0 | 0 | ++ (++, >100 spikes/second) | 0 | 0 | 0 | 0 |  |  |
| C=C1CC/C=C(\C)CC[C@@H]2[C@@H]1CC2(C)C [β-caryophyllene] |  |  | 0 | ++ (++, >100 spikes/second) | 0 | 0 | 0 | 0 | 0 | 0 | 0 | 0 | + (+, >50 spikes/second) | 0 |  |  |
| CC1=CCC(C(C)C)=CC1 [γ-terpinene] |  |  | 0 | 0 | 0 | 0 | +++ (+++, >150 spikes/second) | 0 | 0 | ++ (++, >100 spikes/second) | 0 | 0 | 0 | 0 |  |  |
| CC1=CCC2C(C1)C2(C)C (stereo not shown) [δ-3-carene] |  |  | 0 | 0 | 0 | 0 | ++ (++, >100 spikes/second) | 0 | 0 | ++ (++, >100 spikes/second) | 0 | 0 | 0 | 0 |  |  |
| (−)-limonene |  |  | 0 | 0 | 0 | 0 | + (+, >50 spikes/second) | 0 | 0 | + (+, >50 spikes/second) | 0 | 0 | 0 | 0 |  |  |
